The record followed here is patent publication US20240024488A1, “COMPOUNDS AND USES THEREOF” (Foghorn Therapeutics Inc., priority 2020, published 2024).

One test addresses T1, HiBit-BRM fusion protein (Homo sapiens, UniProt P51531).
T1 construct: expressed in transfected cells
The test is described as follows: HiBiT-BRM cell-based degradation assay (Nano-Glo HiBiT Lytic Detection, 24 h). Conditions: HeLa cell line expressing HiBiT-BRM. Put shortly: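 Stable HiBiT-BRM HeLa line; 24 h compound exposure, top final 30 μM, 3-fold, 10 pts in duplicate. Lytic HiBiT/LgBiT luminescence readout. % degradation vs DMSO (0%) and 2 μM known BRM/BRG1 degrader (100%).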

The target of test [1] is T2, HiBit-BRG1 fusion protein (Homo sapiens, UniProt P51532).
T2 construct: expressed in transfected cells
T2 sequence (P51532 whole entry, the tested form may be a part): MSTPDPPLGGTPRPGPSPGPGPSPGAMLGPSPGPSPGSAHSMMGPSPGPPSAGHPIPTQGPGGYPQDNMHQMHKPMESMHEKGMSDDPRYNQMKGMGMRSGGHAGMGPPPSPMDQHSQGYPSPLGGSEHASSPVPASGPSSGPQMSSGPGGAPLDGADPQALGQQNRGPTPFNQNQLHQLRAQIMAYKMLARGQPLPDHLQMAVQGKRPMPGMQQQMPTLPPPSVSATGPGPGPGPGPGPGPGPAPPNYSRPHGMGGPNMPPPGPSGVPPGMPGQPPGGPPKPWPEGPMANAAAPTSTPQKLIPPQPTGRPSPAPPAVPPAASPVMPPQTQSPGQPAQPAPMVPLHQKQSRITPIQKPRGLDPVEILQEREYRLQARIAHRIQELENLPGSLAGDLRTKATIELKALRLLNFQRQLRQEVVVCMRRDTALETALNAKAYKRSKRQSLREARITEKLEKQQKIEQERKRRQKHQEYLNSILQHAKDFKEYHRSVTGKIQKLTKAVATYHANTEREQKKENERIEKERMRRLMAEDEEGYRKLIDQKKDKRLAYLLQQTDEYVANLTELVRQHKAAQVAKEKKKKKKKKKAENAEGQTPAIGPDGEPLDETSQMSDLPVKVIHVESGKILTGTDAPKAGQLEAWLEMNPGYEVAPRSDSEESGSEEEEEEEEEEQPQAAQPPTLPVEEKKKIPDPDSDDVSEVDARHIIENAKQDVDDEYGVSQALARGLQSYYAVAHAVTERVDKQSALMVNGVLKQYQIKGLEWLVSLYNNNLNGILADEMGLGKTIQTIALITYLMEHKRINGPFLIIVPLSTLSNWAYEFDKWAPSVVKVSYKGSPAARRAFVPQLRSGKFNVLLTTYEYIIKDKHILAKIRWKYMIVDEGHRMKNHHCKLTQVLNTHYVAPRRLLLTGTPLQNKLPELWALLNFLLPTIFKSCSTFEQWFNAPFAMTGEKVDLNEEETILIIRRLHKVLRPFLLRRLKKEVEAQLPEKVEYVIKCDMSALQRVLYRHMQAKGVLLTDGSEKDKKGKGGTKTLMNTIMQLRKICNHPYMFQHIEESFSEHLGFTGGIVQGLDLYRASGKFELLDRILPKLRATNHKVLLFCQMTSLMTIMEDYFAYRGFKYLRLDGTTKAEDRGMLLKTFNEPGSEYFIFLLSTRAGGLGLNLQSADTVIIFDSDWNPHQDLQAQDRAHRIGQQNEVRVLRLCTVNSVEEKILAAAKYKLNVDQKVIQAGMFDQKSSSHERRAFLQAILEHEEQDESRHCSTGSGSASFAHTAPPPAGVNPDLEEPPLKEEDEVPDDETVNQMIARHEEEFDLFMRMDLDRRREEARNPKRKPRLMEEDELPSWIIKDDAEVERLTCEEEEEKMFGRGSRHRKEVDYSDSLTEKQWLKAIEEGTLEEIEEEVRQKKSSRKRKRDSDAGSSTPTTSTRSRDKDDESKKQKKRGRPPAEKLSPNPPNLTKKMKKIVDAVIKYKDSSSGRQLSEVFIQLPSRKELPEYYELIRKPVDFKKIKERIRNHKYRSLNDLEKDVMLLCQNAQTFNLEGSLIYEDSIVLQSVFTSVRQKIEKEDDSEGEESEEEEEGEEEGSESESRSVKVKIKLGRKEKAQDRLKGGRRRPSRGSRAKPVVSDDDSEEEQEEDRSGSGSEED
The test is described as follows: HiBiT-BRG1 cell-based degradation assay (Nano-Glo HiBiT Lytic Detection, 24 h). The following applies: HeLa cell line expressing HiBit-BRG1 and LgBit, read-out: BRG1 HiBit Degradation Maximum (%). Put shortly: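 Luminescence from Nano-Glo HiBiT lytic detection, read after 24 h compound exposure, scored degradation in a stable HeLa HiBiT-BRG1/LgBit line seeded at 5000 cells/well. DMSO wells defined 0% and 2 μM known BRM/BRG1 degrader wells defined full degradation.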

T1 sequence (P51531 whole entry, the tested form may be a part): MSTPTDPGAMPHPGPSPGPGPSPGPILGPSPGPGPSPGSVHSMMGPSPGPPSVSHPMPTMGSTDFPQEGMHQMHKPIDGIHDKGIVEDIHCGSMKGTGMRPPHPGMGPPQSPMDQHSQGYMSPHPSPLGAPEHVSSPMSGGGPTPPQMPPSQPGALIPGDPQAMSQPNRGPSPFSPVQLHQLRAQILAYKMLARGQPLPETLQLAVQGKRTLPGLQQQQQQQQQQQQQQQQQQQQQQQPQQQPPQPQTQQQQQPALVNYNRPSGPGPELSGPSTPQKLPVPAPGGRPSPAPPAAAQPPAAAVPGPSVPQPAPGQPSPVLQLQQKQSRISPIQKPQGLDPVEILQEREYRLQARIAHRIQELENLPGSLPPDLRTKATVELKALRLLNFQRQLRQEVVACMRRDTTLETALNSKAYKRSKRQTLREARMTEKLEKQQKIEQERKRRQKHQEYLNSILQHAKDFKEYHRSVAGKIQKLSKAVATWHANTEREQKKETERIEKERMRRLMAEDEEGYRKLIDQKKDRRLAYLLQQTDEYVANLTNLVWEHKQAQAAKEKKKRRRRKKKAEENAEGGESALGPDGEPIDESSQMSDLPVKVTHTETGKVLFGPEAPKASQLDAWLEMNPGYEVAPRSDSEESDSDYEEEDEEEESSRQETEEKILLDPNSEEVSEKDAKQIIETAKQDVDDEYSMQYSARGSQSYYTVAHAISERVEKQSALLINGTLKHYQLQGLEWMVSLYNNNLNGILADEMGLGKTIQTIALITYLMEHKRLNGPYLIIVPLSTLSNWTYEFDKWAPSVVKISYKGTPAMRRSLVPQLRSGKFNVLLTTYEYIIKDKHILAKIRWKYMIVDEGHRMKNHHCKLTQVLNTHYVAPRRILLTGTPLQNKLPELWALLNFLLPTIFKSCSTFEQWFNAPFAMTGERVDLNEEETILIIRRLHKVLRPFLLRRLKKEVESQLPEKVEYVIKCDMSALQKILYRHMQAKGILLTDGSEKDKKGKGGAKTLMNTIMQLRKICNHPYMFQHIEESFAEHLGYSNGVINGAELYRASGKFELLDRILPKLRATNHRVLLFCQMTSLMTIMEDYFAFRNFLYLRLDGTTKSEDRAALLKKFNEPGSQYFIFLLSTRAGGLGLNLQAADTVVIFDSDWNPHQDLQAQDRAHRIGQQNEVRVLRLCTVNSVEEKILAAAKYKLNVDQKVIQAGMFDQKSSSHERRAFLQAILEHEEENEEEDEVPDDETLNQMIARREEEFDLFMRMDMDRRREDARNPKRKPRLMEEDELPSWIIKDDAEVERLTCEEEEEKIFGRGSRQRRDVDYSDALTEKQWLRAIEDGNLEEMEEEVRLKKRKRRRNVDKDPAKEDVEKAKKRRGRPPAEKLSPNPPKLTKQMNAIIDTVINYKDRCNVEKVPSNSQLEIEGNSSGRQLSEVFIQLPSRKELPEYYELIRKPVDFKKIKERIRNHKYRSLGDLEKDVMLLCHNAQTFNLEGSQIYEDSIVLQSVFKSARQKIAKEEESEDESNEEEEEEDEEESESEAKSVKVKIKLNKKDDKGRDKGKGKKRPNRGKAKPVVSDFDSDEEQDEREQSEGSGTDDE

`Cc1ncsc1-c1ccc([C@H](C)NC(=O)[C@@H]2C[C@@H](O)CN2C(=O)[C@@H](c2cc(OCCN(C)CCC(=O)N3CC(c4c[nH]c5nnc(-c6ccccc6O)cc45)C3)no2)C(C)C)cc1` (racemic) [Compound 221, (2S,4R)-4-hydroxy-1-((R)-2-(3-(2-((3-(3-(3-(2-hydroxyphenyl)-7H-pyrrolo[2,3-c]pyridazin-5-yl)azetidin-1-yl)-3-oxopropyl)(methyl)amino)ethoxy)isoxazol-5-yl)-3-methylbutanoyl)-N-((S)-1-(4-(4-methylthiazol-5-yl)phenyl)ethyl)pyrrolidine-2-carboxamide]: on HiBit-BRM fusion protein, the “BRM HiBit Degradation Maximum (%)” value is recorded as “B (“B” indicates maximum degradation ≥ 50%)”. Also, the DC50 at HiBit-BRM fusion protein (read-out: BRM HiBit Degradation IC50) was above 100 nM. The Dmax in test [1] is below 50%.
